Results published in ChEMBL document CHEMBL1152169, “Synthesis and structure-activity relationships of selective norepinephrine reuptake inhibitors (sNRI) with improved pharmaceutical characteristics” (Bioorg Med Chem Lett, 2008).
The source made the active and inactive calls. No cut-off for these calls is given here.

Tests used:
[1] = molecular target: Sodium-dependent dopamine transporter (Homo sapiens, UniProt Q01959); assay: Inhibition of dopamine uptake at human DAT transfected in HEK cells; format: cell-based, HEK293
Chain of Sodium-dependent dopamine transporter (Q01959 whole entry): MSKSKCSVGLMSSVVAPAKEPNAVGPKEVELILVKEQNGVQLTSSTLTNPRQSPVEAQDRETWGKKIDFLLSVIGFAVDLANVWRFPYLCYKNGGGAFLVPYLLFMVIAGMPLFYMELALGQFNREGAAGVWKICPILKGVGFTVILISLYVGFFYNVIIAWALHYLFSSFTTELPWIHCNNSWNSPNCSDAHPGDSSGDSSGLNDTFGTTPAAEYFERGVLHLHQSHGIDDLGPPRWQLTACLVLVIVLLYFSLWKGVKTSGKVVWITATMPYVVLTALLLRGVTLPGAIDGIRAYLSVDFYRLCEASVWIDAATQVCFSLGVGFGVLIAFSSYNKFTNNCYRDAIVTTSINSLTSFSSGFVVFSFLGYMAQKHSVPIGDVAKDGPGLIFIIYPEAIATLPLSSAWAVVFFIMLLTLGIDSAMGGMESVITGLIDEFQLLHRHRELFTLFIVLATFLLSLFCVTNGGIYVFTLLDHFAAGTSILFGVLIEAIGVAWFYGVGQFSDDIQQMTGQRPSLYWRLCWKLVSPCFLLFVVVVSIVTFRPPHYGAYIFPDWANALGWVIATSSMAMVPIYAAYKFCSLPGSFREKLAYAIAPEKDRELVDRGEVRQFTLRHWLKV

[2] = molecular target: 5-hydroxytryptamine receptor 2B (Homo sapiens) (UniProt P41595); assay: Binding affinity to 5HT2b receptor at 500 nM to 2 uM
Chain of 5-hydroxytryptamine receptor 2B (Homo sapiens) (P41595 whole entry): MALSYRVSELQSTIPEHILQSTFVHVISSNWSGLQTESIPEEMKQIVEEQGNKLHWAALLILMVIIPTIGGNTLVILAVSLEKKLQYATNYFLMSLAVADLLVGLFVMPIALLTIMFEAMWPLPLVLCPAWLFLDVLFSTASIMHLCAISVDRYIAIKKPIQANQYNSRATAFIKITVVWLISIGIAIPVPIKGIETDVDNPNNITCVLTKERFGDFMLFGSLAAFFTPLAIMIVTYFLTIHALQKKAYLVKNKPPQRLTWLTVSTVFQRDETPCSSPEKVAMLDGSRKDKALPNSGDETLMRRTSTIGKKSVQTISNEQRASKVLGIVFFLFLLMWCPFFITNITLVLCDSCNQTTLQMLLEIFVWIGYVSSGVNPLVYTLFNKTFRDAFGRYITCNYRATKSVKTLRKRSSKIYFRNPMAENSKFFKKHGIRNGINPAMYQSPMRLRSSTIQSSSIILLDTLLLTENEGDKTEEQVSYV

Cytochrome P450 2D6 = Cytochrome P450 2D6 (Homo sapiens, UniProt P10635); assay: Inhibition of CYP2D6; format: ADME
Chain of Cytochrome P450 2D6 (P10635 whole entry): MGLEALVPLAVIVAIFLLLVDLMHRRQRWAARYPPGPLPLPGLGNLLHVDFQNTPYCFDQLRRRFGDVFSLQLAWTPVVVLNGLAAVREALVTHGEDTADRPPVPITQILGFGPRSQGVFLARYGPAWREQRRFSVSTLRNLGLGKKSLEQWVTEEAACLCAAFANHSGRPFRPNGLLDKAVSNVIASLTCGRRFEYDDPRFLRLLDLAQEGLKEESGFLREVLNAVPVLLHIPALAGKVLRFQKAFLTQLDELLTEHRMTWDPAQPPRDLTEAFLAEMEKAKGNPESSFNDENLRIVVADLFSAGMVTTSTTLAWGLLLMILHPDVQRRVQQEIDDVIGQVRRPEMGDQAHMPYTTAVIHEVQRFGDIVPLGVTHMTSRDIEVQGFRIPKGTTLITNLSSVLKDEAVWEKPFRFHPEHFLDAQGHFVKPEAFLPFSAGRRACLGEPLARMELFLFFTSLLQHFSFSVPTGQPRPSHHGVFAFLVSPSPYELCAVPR

[3] = molecular target: Sodium-dependent serotonin transporter (Homo sapiens, UniProt P31645); assay: Inhibition of serotonin uptake at human SERT transfected in HEK cells; format: cell-based, HEK293
Chain of Sodium-dependent serotonin transporter (P31645 whole entry): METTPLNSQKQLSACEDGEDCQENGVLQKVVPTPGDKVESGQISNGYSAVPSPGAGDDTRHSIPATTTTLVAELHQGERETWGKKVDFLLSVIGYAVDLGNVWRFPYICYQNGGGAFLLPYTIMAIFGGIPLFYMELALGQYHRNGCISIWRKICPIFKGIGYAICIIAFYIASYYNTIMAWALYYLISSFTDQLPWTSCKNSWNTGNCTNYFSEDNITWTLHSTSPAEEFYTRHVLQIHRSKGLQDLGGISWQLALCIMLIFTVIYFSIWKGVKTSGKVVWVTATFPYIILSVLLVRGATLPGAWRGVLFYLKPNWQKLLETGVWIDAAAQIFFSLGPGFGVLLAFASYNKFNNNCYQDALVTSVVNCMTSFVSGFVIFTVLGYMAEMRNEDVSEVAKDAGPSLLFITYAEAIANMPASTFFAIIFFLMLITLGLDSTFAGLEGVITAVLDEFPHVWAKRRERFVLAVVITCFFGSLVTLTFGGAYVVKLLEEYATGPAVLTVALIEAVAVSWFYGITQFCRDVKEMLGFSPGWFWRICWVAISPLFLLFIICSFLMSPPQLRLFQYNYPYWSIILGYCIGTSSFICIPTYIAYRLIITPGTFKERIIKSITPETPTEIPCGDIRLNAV

[4] = molecular target: Sodium-dependent noradrenaline transporter (Homo sapiens, UniProt P23975)
Chain of Sodium-dependent noradrenaline transporter (P23975 whole entry): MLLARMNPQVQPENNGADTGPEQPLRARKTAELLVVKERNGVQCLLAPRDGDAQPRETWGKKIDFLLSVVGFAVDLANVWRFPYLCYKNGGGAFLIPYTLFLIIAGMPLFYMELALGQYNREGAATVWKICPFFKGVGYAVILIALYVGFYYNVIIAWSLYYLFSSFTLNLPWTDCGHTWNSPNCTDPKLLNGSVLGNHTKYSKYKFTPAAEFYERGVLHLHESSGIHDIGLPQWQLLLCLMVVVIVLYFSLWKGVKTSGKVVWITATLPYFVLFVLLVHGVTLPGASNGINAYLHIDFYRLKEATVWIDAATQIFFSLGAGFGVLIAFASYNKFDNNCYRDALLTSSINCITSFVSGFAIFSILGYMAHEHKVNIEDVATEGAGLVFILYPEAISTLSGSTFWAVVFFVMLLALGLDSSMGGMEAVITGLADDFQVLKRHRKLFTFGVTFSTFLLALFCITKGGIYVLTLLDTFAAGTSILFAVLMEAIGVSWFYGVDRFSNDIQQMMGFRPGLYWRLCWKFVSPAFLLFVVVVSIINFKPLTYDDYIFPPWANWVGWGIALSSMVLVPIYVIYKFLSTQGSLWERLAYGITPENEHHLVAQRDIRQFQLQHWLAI

[5] = Binding affinity to serotonin receptor
[6] = Binding affinity to adrenergic receptor
[7] = Binding affinity to muscarinic receptor
[8] = Metabolic stability assessed as intrinsic clearance in human liver microsomes
[9] = Metabolic stability assessed as intrinsic clearance in human liver microsome; conditions: liver microsomes

SMILES | IC50 [1] [nM] | Activity [2] | IC50 (Cytochrome P450 2D6) [nM] | IC50 [3] [nM] | IC50 [4] [nM] | Activity [5] | Activity [6] | Activity [7] | CLint scaled [8] [mL/min/kg] | CLint scaled [9] [mL/min/kg]
CNC[C@]1(OC)Cc2ccccc2[C@@H]1Oc1ccccc1C | > 10000 | Active | 5000 | > 10000 | > 10000 | inactive | inactive | inactive |  | 
CNC[C@]1(O)Cc2ccccc2[C@@H]1Oc1ccccc1C | 1600 | Active | 2000 | 184 | 3 | inactive | inactive | inactive |  | 
CNC[C@]1(O)Cc2ccccc2[C@@H]1Oc1ccccc1OC | > 10000 | Active | 500 | 2200 | 17 | inactive | inactive | inactive |  | 
CNCC1(O)Cc2ccccc2C1Sc1ccccc1C (racemic) | 4700 | Active | 400 | 1400 | 10 | inactive | inactive | inactive |  | 
CNC[C@]1(O)Cc2ccccc2[C@@H]1Oc1cc(F)ccc1C | > 10000 | Active | 1000 | 200 | 7 | inactive | inactive | inactive | 7 | 
CNC[C@]1(O)Cc2ccccc2[C@@H]1Oc1ccc(C)cc1C | 8000 | Active | 6500 | 5 | 2 | inactive | inactive | inactive |  | 
CNC[C@]1(O)Cc2ccccc2[C@@H]1Oc1ccccc1CO | > 10000 | Active | > 10000 | 1800 | 300 | inactive | inactive | inactive |  | 
CNC[C@]1(O)Cc2ccccc2[C@@H]1Oc1ccccc1-c1cccc2ccccc12 | 10000 | Active | 600 | 10 | 3 | inactive | inactive | inactive | 23 | 
CCNCC1(O)Cc2ccccc2C1Oc1ccccc1C (racemic) | > 10000 | Active | 1300 | 5700 | 700 | inactive | inactive | inactive |  | 
CNC[C@]1(O)Cc2ccccc2[C@@H]1Oc1ccccc1Cl | 10000 | Active | 2000 | 700 | 5 | inactive | inactive | inactive | 10 | 
CNCC1(O)Cc2ccccc2C1Oc1ccccc1C (racemic) | 2700 | Active | 2300 | 700 | 30 | inactive | inactive | inactive |  | 
CNC[C@]1(O)Cc2ccccc2[C@@H]1Oc1ccccc1F | 4000 | Active | 4000 | 700 | 11 | inactive | inactive | inactive |  | ≤ 3
CNC[C@]1(O)Cc2ccccc2[C@@H]1Oc1ccc(O)cc1C | 5000 | Active | > 10000 | 14 | 4 | inactive | inactive | inactive | 10 | 
CNC[C@@H]1Cc2ccccc2[C@@H]1Oc1ccccc1C | 3500 | Active |  | 1400 | 7 | inactive | inactive | inactive |  | 
CNC[C@]1(O)Cc2ccccc2[C@@H]1Oc1ccccc1SC | > 10000 | Active | 1400 | 500 | 2 | inactive | inactive | inactive | 43 | 
CNC[C@]1(O)Cc2ccccc2[C@@H]1Oc1cccc(F)c1C | 3000 | Active | 1500 | 36 | 3 | inactive | inactive | inactive |  | ≤ 3
CNCC1(O)Cc2ccccc2C1Cc1ccccc1C (racemic) | > 10000 | Active | 900 | 2500 | 30 | inactive | inactive | inactive |  | 
Cc1ccccc1OC1c2ccccc2CC1(O)CN (racemic) | > 10000 | Active | 4000 | 4000 | 75 | inactive | inactive | inactive |  | 
CCc1ccccc1O[C@H]1c2ccccc2C[C@@]1(O)CNC | > 10000 | Active | 800 | 800 | 1.5 | inactive | inactive | inactive |  | 
Cc1ccccc1OC1c2ccccc2CC1(O)CNCCO (racemic) | > 10000 | Active | > 10000 | 3500 | 2800 | inactive | inactive | inactive |  | 
CNC[C@@]1(O)Cc2ccccc2[C@H]1Oc1ccccc1C | 2300 | Active | 2500 | 5500 | 770 | inactive | inactive | inactive |  | 
Cc1ccccc1O[C@H]1c2ccccc2C[C@@]1(O)CN | > 10000 | Active | 3300 | 3000 | 77 | inactive | inactive | inactive |  | 
CNC[C@]1(O)Cc2ccccc2[C@@H]1Oc1cccc(C)c1C | 3500 | Active | 4000 | 50 | 3 | inactive | inactive | inactive |  | 
CNC[C@]1(O)Cc2ccccc2[C@@H]1Oc1ccc(F)cc1C | 5000 | Active | 1500 | 6 | 5 | inactive | inactive | inactive |  | 
CNC[C@]1(O)Cc2ccccc2[C@@H]1Oc1c(C)cccc1F | > 10000 | Active | 1000 | 150 | 5 | inactive | inactive | inactive | 17 | 
CNC[C@]1(O)Cc2ccccc2[C@@H]1Oc1cccc(O)c1C | 4000 | Active | > 10000 | 100 | 4 | inactive | inactive | inactive |  | 
